# Test results from ChEMBL document CHEMBL5260845, “Flavone-based arylamides as potential anticancers: Design, synthesis and in vitro cell-based/cell-free evaluations” (2020).
# The source made the active and inactive calls. The rule behind the calls is not given here.
# Key:
# KM12 = assay: Antiproliferative activity against human KM12 cells assessed as cell growth inhibition at 10 uM by SRB assay; format: functional, cell-based
# Lung cancer cell line = assay: Antiproliferative activity against human lung cancer cells assessed as cell growth inhibition at 10 uM by SRB assay relative to control; format: functional
# Malme-3M = assay: Antiproliferative activity against human Malme-3M cells assessed as cell growth inhibition at 10 uM by SRB assay relative to control; format: functional
# HCT-15 = assay: Antiproliferative activity against human HCT-15 cells assessed as cell growth inhibition at 10 uM by SRB assay; format: functional, cell-based
# Ovarian cancer cell line = assay: Antiproliferative activity against human ovarian cancer cells assessed as cell growth inhibition at 10 uM by SRB assay relative to control; format: functional
# HCC 2998 = assay: Antiproliferative activity against human HCC 2998 cells assessed as cell growth inhibition at 10 uM by SRB assay; format: functional, cell-based
# NCI-H23 = assay: Antiproliferative activity against human NCI-H23 cells assessed as cell growth inhibition at 10 uM by SRB assay; format: functional
# DU-145 = assay: Antiproliferative activity against human DU-145 cells assessed as inhibition of cell growth at 10 uM by SRB assay relative to control; format: functional
# SK-MEL-28 = assay: Antiproliferative activity against human SK-MEL-28 cells assessed as cell growth inhibition at 10 uM by SRB assay relative to control; format: functional
# HCT-116 = assay: Antiproliferative activity against human HCT-116 cells assessed as cell growth inhibition at 10 uM by SRB assay; format: functional, cell-based
# PC-3 = assay: Antiproliferative activity against human PC-3 cells assessed as inhibition of cell growth at 10 uM by SRB assay relative to control; format: functional
# Prostatic carcinoma cell = assay: Antiproliferative activity against human prostatic carcinoma cells assessed as cell growth inhibition at 10 uM by SRB assay relative to control; format: functional
# UACC-62 = assay: Antiproliferative activity against human UACC-62 cells assessed as cell growth inhibition at 10 uM by SRB assay relative to control; format: functional
# OVCAR-8 = assay: Antiproliferative activity against human OVCAR-8 cells assessed as cell growth inhibition at 10 uM by SRB assay relative to control; format: functional
# SW-620 = assay: Antiproliferative activity against human SW620 cells assessed as cell growth inhibition at 10 uM by SRB assay; format: functional, cell-based
# COLO 205 = assay: Antiproliferative activity against human COLO 205 cells assessed as cell growth inhibition at 10 uM by SRB assay; format: functional, cell-based
# RPMI-8226 = assay: Antiproliferative activity against human RPMI-8226 cells assessed as cell growth inhibition at 10 uM by SRB assay relative to control; format: functional
# A549 = assay: Antiproliferative activity against human A549 cells assessed as cell growth inhibition at 10 uM by SRB assay; format: functional, cell-based
# NCI-H460 = assay: Antiproliferative activity against human NCI-H460 cells assessed as cell growth inhibition at 10 uM by SRB assay relative to control; format: functional
# OVCAR-4 = assay: Antiproliferative activity against human OVCAR-4 cells assessed as cell growth inhibition at 10 uM by SRB assay relative to control; format: functional
# HT-29 = assay: Antiproliferative activity against human HT-29 cells assessed as cell growth inhibition at 10 uM by SRB assay; format: functional, cell-based
# NCI-H226 = assay: Antiproliferative activity against human NCI-H226 cells assessed as cell growth inhibition at 10 uM by SRB assay; format: functional
# HOP-62 = assay: Antiproliferative activity against human HOP-62 cells assessed as cell growth inhibition at 10 uM by SRB assay relative to control; format: functional
smiles,measurement,setting,value
COc1cc2oc(-c3cccc(C(=O)Nc4ccc(C#N)cc4)c3)cc(=O)c2c(O)c1OC,inhibition,KM12,Active
same,inhibition at 10 µM,Lung cancer cell line,> 50%
same,inhibition at 10 µM,Malme-3M,52.3%
same,inhibition,HCT-15,Active
same,inhibition at 10 µM,Ovarian cancer cell line,> 50%
same,inhibition,HCC 2998,Active
same,inhibition,NCI-H23,Active
same,inhibition at 10 µM,DU-145,65.8%
same,inhibition at 10 µM,SK-MEL-28,67.2%
same,inhibition,HCT-116,Active
same,inhibition at 10 µM,PC-3,92.1%
same,inhibition at 10 µM,Prostatic carcinoma cell,> 50%
same,inhibition at 10 µM,UACC-62,50.5%
same,inhibition at 10 µM,OVCAR-8,70.9%
same,inhibition,SW-620,Active
same,inhibition,COLO 205,Active
same,inhibition at 10 µM,RPMI-8226,82.6%
same,inhibition,A549,Active
same,inhibition at 10 µM,NCI-H460,81.1%
same,inhibition at 10 µM,OVCAR-4,88.3%
same,inhibition,HT-29,Active
same,inhibition,NCI-H226,Active
same,inhibition at 10 µM,HOP-62,31.8%
